# In patent publication US20250213735A1, “NEUROPEPTIDE Y1 RECEPTOR (NPY1R) TARGETED THERAPEUTICS AND USES THEREOF” (Radionetics Oncology, Inc., priority 2023, published 2025):
# Target: hNPY1R (Homo sapiens (Human), UniProt P25929)
# Assay: NPY1R binding assay (SK-N-MC membrane, [125I]-Peptide YY competition);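 also: bound radioligand separated by filtration over GF/C filter plates and counted, Ki obtained by non-linear regression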
# Conditions: crude SK-N-MC membranes endogenously expressing NPY1R; [125I]-Peptide YY (human) 0.05 nM; 120 min at room temperature; read-out: hNPY1R binding Ki
# Sequence of hNPY1R (P25929 whole entry): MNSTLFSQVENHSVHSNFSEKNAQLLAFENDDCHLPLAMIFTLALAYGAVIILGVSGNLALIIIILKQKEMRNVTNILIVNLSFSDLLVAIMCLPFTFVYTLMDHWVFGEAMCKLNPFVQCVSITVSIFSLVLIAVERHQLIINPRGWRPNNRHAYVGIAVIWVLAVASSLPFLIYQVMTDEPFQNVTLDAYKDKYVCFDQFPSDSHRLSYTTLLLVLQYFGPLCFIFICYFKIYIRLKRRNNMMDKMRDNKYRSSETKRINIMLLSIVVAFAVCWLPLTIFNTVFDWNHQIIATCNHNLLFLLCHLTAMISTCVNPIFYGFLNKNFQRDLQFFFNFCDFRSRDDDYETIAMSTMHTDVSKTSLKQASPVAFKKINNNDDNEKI
row,Compound,Ki
1,"CCC(=O)NCCNC(=O)/N=C(/N)NCCC[C@@H](NC(=O)[C@H](c1ccccc1)N1Cc2cccc(NCCCNC(=O)C[C@H](O)C[C@H](O)CCNC(=O)CN3CCN(CC(=O)O)CCN(CC(=O)O)CCN(CC(=O)O)CC3)c2C1)C(=O)NCc1c(F)cc(O)cc1F [compound 41, 2,2′,2″-(10-(2-(((3R,5R)-7-((3-((2-((1S,4R,Z)-9-amino-4-((2,6-difluoro-4-hydroxybenzyl)carbamoyl)-2,11,16-trioxo-1-phenyl-3,8,10,12,15-pentaazaoctadec-9-en-1-yl)isoindolin-4-yl)amino)propyl)amino)-3,5-dihydroxy-7-oxoheptyl)amino)-2-oxoethyl)-1,4,7,10-tetraazacyclododecane-1,4,7-triyl)triacetic acid]",< 10 nM
2,"CCNC(=O)/N=C(/N)NCCC[C@@H](NC(=O)[C@H](c1cccc(NCCCNC(=O)CCOCCNC(=O)CN2CCN(CC(=O)O)CCN(CC(=O)O)CCN(CC(=O)O)CC2)c1)N1Cc2ccccc2C1)C(=O)NCc1c(F)cc(O)cc1F [compound 14, 2,2′,2″-(10-(2-((2-(3-((3-((3-((11R,14S,Z)-6-amino-11-((2,6-difluoro-4-hydroxybenzyl)carbamoyl)-14-(isoindolin-2-yl)-4,13-dioxo-3,5,7,12-tetraazatetradec-5-en-14-yl)phenyl)amino)propyl)amino)-3-oxopropoxy)ethyl)amino)-2-oxoethyl)-1,4,7,10-tetraazacyclododecane-1,4,7-triyl)triacetic acid]",< 10 nM
3,"CCC(=O)NCCNC(=O)/N=C(/N)NCCC[C@@H](NC(=O)[C@H](c1ccc(OCCCNC(=O)CCN(C)CCNC(=O)CN2CCN(CC(=O)O)CCN(CC(=O)O)CCN(CC(=O)O)CC2)cc1)N1Cc2ccccc2C1)C(=O)NCc1c(F)cc(O)cc1F [compound 55, 2,2′,2″-(10-(2-((2-((3-((3-(4-((1S,4R,Z)-9-amino-4-((2,6-difluoro-4-hydroxybenzyl)carbamoyl)-1-(isoindolin-2-yl)-2,11,16-trioxo-3,8,10,12,15-pentaazaoctadec-9-en-1-yl)phenoxy)propyl)amino)-3-oxopropyl)(methyl)amino)ethyl)amino)-2-oxoethyl)-1,4,7,10-tetraazacyclododecane-1,4,7-triyl)triacetic acid]",< 10 nM
4,"CCC(=O)NCCNC(=O)/N=C(/N)NCCC[C@@H](NC(=O)[C@H](c1cccc(NC(=O)CCCNC(=O)CCCCCNC(=O)CN2CCN(CC(=O)O)CCN(CC(=O)O)CCN(CC(=O)O)CC2)c1)N1Cc2ccccc2C1)C(=O)NCc1ccc(O)cc1 [3A, 2,2′,2″-(10-(2-((6-((4-((3-((1S,4R,Z)-9-amino-4-((4-hydroxybenzyl)carbamoyl)-1-(isoindolin-2-yl)-2,11,16-trioxo-3,8,10,12,15-pentaazaoctadec-9-en-1-yl)phenyl)amino)-4-oxobutyl)amino)-6-oxohexyl)amino)-2-oxoethyl)-1,4,7,10-tetraazacyclododecane-1,4,7-triyl)triacetic acid-2,2,2-trifluoroacetic acid (1/1)]",< 10 nM
5,"CCNC(=O)/N=C(/N)NCCC[C@@H](NC(=O)[C@@H](c1cccc(NCCCN)c1)N1Cc2ccccc2C1)C(=O)NCc1c(F)cc(O)cc1F [66B, (R)-2-((R)-2-(3-((3-aminopropyl)amino)phenyl)-2-(isoindolin-2-yl)acetamido)-N-(2,6-difluoro-4-hydroxybenzyl)-5-((Z)-2-(ethylcarbamoyl)guanidino)pentanamide]",< 10 nM
6,"CCC(=O)NCCNC(=O)/N=C(/N)NCCC[C@@H](NC(=O)C(c1ccccc1)N1Cc2ccccc2C1)C(=O)NCc1ccc(O)cc1 (stereo partly drawn) [compound 60, (2R)—N-(4-hydroxybenzyl)-2-(2-(isoindolin-2-yl)-2-phenylacetamido)-5-((Z)-2-((2-propionamidoethyl)carbamoyl)guanidino)pentanamide]",< 10 nM
7,"CCNC(=O)/N=C(/N)NCCC[C@@H](NC(=O)C(c1ccccc1)N1CCC(C(C)(C)C)CC1)C(=O)NCc1c(F)cc(O)cc1F (stereo partly drawn) [compound 92, (2R)-2-(2-(4-(tert-butyl)piperidin-1-yl)-2-phenylacetamido)-N-(2,6-difluoro-4-hydroxybenzyl)-5-((Z)-2-(ethylcarbamoyl)guanidino)pentanamide]",< 10 nM
8,"CCC(=O)NCCNC(=O)/N=C(/N)NCCC[C@@H](NC(=O)[C@@H](c1cccc(NC(=O)CCCNC(=O)CCCCCNC(=O)CN2CCN(CC(=O)O)CCN(CC(=O)O)CCN(CC(=O)O)CC2)c1)N1Cc2ccccc2C1)C(=O)NCc1ccc(O)cc1 [3B, 2,2′,2″-(10-(2-((6-((4-((3-((1R,4R,Z)-9-amino-4-((4-hydroxybenzyl)carbamoyl)-1-(isoindolin-2-yl)-2,11,16-trioxo-3,8,10,12,15-pentaazaoctadec-9-en-1-yl)phenyl)amino)-4-oxobutyl)amino)-6-oxohexyl)amino)-2-oxoethyl)-1,4,7,10-tetraazacyclododecane-1,4,7-triyl)triacetic acid]",< 10 nM
9,"CCC(=O)NCCNC(=O)/N=C(/N)NCCC[C@@H](NC(=O)[C@H](c1ccccc1)N1Cc2ccccc2C1)C(=O)NCc1c(F)cc(O)cc1F [61A, (R)—N-(2,6-difluoro-4-hydroxybenzyl)-2-((S)-2-(isoindolin-2-yl)-2-phenylacetamido)-5-((Z)-2-((2-propionamidoethyl)carbamoyl)guanidino)pentanamide]",< 10 nM
10,"CCNC(=O)/N=C(/N)NCCC[C@@H](NC(=O)C(c1ccccc1)N1Cc2ccccc2C1)C(=O)NCc1c(F)cc(O)cc1F (stereo partly drawn) [compound 67, (2R)—N-(2,6-difluoro-4-hydroxybenzyl)-5-((Z)-2-(ethylcarbamoyl)guanidino)-2-(2-(isoindolin-2-yl)-2-phenylacetamido)pentanamide]",< 10 nM
11,"CCC(=O)NCCNC(=O)/N=C(/N)NCCC[C@@H](NC(=O)[C@H](c1ccc(OCCCNC2CCN(C(=O)CCCCCNC(=O)CN3CCN(CC(=O)O)CCN(CC(=O)O)CCN(CC(=O)O)CC3)CC2)cc1)N1Cc2ccccc2C1)C(=O)NCc1c(F)cc(O)cc1F [compound 5, 2,2′,2″-(10-(2-((6-(4-((3-(4-((1S,4R,Z)-9-amino-4-((2,6-difluoro-4-hydroxybenzyl)carbamoyl)-1-(isoindolin-2-yl)-2,11,16-trioxo-3,8,10,12,15-pentaazaoctadec-9-en-1-yl)phenoxy)propyl)amino)piperidin-1-yl)-6-oxohexyl)amino)-2-oxoethyl)-1,4,7,10-tetraazacyclododecane-1,4,7-triyl)triacetic acid-2,2,2-trifluoroacetic acid (1/1)]",< 10 nM
12,"CCNC(=O)/N=C(/N)NCCC[C@@H](NC(=O)C(c1ccccc1)N1CCC(C(C)(C)C)CC1)C(=O)NCc1ccc(O)cc1 (stereo partly drawn) [compound 91, (2R)-2-(2-(4-(tert-butyl)piperidin-1-yl)-2-phenylacetamido)-5-((Z)-2-(ethylcarbamoyl)guanidino)-N-(4-hydroxybenzyl)pentanamide]",< 10 nM
13,"CC(C)(C)C1CCN(C(C(=O)N[C@H](CCCNC(=N)N)C(=O)NCc2ccc(O)cc2)c2ccccc2)CC1 (stereo partly drawn) [compound 80, (2R)-2-(2-(4-(tert-butyl)piperidin-1-yl)-2-phenylacetamido)-5-guanidino-N-(4-hydroxybenzyl)pentanamide]",10 to 100 nM
14,"CCC(=O)NCCNC(=O)/N=C(/N)NCCC[C@@H](NC(=O)[C@H](c1ccc(OCCCCNC(=O)CCCCCNC(=O)CN2CCN(CC(=O)O)CCN(CC(=O)O)CCN(CC(=O)O)CC2)cc1)N1Cc2ccccc2C1)C(=O)NCc1ccc(O)cc1 [compound 57, 2,2′,2″-(10-(2-((6-((4-(4-((1S,4R,Z)-9-amino-4-((4-hydroxybenzyl)carbamoyl)-1-(isoindolin-2-yl)-2,11,16-trioxo-3,8,10,12,15-pentaazaoctadec-9-en-1-yl)phenoxy)butyl)amino)-6-oxohexyl)amino)-2-oxoethyl)-1,4,7,10-tetraazacyclododecane-1,4,7-triyl)triacetic acid]",< 10 nM
15,"CCC(=O)NCCNC(=O)/N=C(/N)NCCC[C@@H](NC(=O)[C@H](c1cccc(N(C)CCCNC(=O)CCCCCNC(=O)CN2CCN(CC(=O)O)CCN(CC(=O)O)CCN(CC(=O)O)CC2)c1)N1Cc2ccccc2C1)C(=O)NCc1ccc(O)cc1 [compound 11, 2,2′,2″-(10-(2-((6-((3-((3-((1S,4R,Z)-9-amino-4-((4-hydroxybenzyl)carbamoyl)-1-(isoindolin-2-yl)-2,11,16-trioxo-3,8,10,12,15-pentaazaoctadec-9-en-1-yl)phenyl)(methyl)amino)propyl)amino)-6-oxohexyl)amino)-2-oxoethyl)-1,4,7,10-tetraazacyclododecane-1,4,7-triyl)triacetic acid]",< 10 nM
16,"CCCC1CCN([C@@H](C(=O)N[C@H](CCCNC(=N)N)C(=O)NCc2ccc(O)cc2)c2ccccc2)CC1 [78A, (R)-5-guanidino-N-(4-hydroxybenzyl)-2-((R)-2-phenyl-2-(4-propylpiperidin-1-yl)acetamido)pentanamide]",> 1000 nM
17,"CCC(=O)NCCNC(=O)/N=C(/N)NCCC[C@@H](NC(=O)[C@H](c1ccccc1)N1Cc2cccc(NCCCNC(=O)CCCCCNC(=O)CN3CCN(CC(=O)O)CCN(CC(=O)O)CCN(CC(=O)O)CC3)c2C1)C(=O)NCc1c(F)cc(O)cc1F [compound 33, 2,2′,2″-(10-(2-((6-((3-((2-((1S,4R,Z)-9-amino-4-((2,6-difluoro-4-hydroxybenzyl)carbamoyl)-2,11,16-trioxo-1-phenyl-3,8,10,12,15-pentaazaoctadec-9-en-1-yl)isoindolin-4-yl)amino)propyl)amino)-6-oxohexyl)amino)-2-oxoethyl)-1,4,7,10-tetraazacyclododecane-1,4,7-triyl)triacetic acid]",< 10 nM
18,"CCC(=O)NCCNC(=O)/N=C(/N)NCCC[C@@H](NC(=O)[C@H](c1ccccc1)N1Cc2cccc(NCCCNC(=O)C[C@H]3NC(=O)[C@@H](CCCNC(=O)CN4CCN(CC(=O)O)CCN(CC(=O)O)CCN(CC(=O)O)CC4)NC3=O)c2C1)C(=O)NCc1c(F)cc(O)cc1F [compound 40, 2,2′,2″-(10-(2-((3-((2R,5R)-5-(2-((3-((2-((1S,4R,Z)-9-amino-4-((2,6-difluoro-4-hydroxybenzyl)carbamoyl)-2,11,16-trioxo-1-phenyl-3,8,10,12,15-pentaazaoctadec-9-en-1-yl)isoindolin-4-yl)amino)propyl)amino)-2-oxoethyl)-3,6-dioxopiperazin-2-yl)propyl)amino)-2-oxoethyl)-1,4,7,10-tetraazacyclododecane-1,4,7-triyl)triacetic acid]",< 10 nM
